The source of these data is patent US6245758A, “Methods of use for peroxynitrite decomposition catalysts, pharmaceutical compositions therefor” (priority 1996, dated 2001).

The test system of test [1] is rat jejunum. Description: Intestinal vascular permeability (radiolabelled albumin leakage) after endotoxin (LPS). In kind it is in vivo. The settings on record: 30 mg/kg, i.v, 3 h after LPS; determined 1 h later. Here is the method:
FIG. 10 . Effects of FeTMPS, FeTMPyP or ZnTMPyP (30 mg/kg, i.v bolus) administered 3 h after challenge with E. coli lipopolysaccharide (LPS, 3 mg/kg, i.v bolus) on the increase in leakage of radio-labelled albumin (plasma extravasation, μl/g tissue) observed 1 h later (e.g 4 h after LPS challenge) in the rat jejunum. Results are shown as mean±s.e.m of 4-8 rats.
Intestinal vascular permeability was determined as the leakage into the jejunal tissue of [^125 I]-labelled bovine serum albumin ([^125 ]-BSA) administered intravenously (0.5 ml; 0.5 μCi) together with either LPS (3 mg/kg, serotype O111:B4) or isotonic saline. At 4 h after LPS administration, segments of jejunal tissue were ligated and removed. The intestinal tissues were rapidly washed, blotted dry and weighed. Blood (0.5 ml) was collected into tubes containing tri-sodium citrate (0.318% final concentration) and plasma prepared by centrifugation (10,000 g×10 min). The {^125 I]-BSA content in segments of whole tissue and in aliquots of plasma (100 μl) was determined in a gamma counter. The total content of plasma in the intestinal tissues was expressed as μl/g tissue. Changes in intravascular volume in the intestinal tissue was determined in an additional group of rats by administering ([^125 I]-BSA) intravenously 2 min before removal of the jejunum. The tissue and plasma content of radiolabel was determined and intravascular volume expressed as μl/g tissue. This value was substracted from that obtained in the plasma leakage studies to obtain a measure of the intestinal plasma albumin leakage. After LPS administration (4 h), there was a significant (P<0.01) increase in the plasma leakage (from 77±10 to 224±18 μl/g tissue, n=8).

Test [2] in a line: Catalysis of dismutation of superoxide. The settings on record: under the assay conditions employed.
The nature of test [3]: Stopped-flow kinetic analysis of catalytic decomposition of peroxynitrite by metal complexes. The settings on record: pH = 7.4, 22° C. Here is the method:
To screen metal complexes for peroxynitrite decomposition catalytic activity of the present invention, peroxynitrite is prepared and isolated as its sodium salt by the reaction of acidic hydrogen peroxide with sodium nitrite followed by rapid quenching with NaOH as set out by Halfpenny and Robinson, in J. Chem. So., 1952, 928-938. Peroxynitrite has an absorbance maximum at 302 nm with an extinction coefficient of 1670 M^-1 cm^-1. Therefore, it is possible to directly observe the decomposition of peroxynitrite by stop-flow spectrophotometric analysis by monitoring the decomposition of the absorbance at 302 nm. That is, such observation of the decomposition of peroxynitrite at a rate accelerated over the natural decomposition rate with the addition of the metal complex identifies a compound of the present invention.
Kinetic measurements were made on an OLIS Rapid Scanning Stopped-Flow Spectrometer (On-Line Instrument Systems Inc., Bogart, Ga.)) using the OLISRSM-1000 Operating system for data acquisition and manipulation.
Thus, in a typical experiment the natural background decomposition rate of sodium peroxynitrite was determined as follows. A 24 mM stock solution of sodium peroxynitrite in 50 mM NaOH is load into the small volume syringe and 100 mM potassium phosphate pH=7.4 is charged into the large volume syringe of the stopped-flow spectrophotometer. All stopped -flow measurements were made at 22 ° C. Injection of the solutions into the sample compartment results in ~25 fold dilution of the stock sodium peroxynitrite. […] To test for catalytic peroxynitrite decomposition activity, the metal complex was dissolved in 100 mM potassium phosphate buffer pH=7.4 and loaded into the large syringe and the decomposition of peroxynitrite was monitored as described above. The catalytic rate constant (kcat M-1 sec^-1) for the complexes tested was determined by varying the complex concentration and plotting kobs vs [complex] Table 1. The kobs were obtained from averages of three stopped flow analysis at each catalyst concentration.

The subject of test [4] is rat jejunum. Put plainly: Histological examination of jejunal tissues after LPS. In kind it is in vivo. The settings on record: 30 mg/kg i.v.

`CC(=O)[O-].Cc1c(-c2c3nc(c(-c4c(C)c(S(=O)(=O)[O-])c(C)c(S(=O)(=O)[O-])c4C)c4ccc([n-]4)c(-c4c(C)c(S(=O)(=O)[O-])c(C)c(S(=O)(=O)[O-])c4C)c4nc(c(-c5c(C)c(S(=O)(=O)[O-])c(C)c(S(=O)(=O)[O-])c5C)c5ccc2[n-]5)C=C4)C=C3)c(C)c(S(=O)(=O)[O-])c(C)c1S(=O)(=O)[O-].[Fe+3].[Na+].[Na+].[Na+].[Na+].[Na+].[Na+].[Na+].[Na+]` [Fe(III)TMPS, Acetato-5,10,15,20-tetrakis(3,5-disulfonatomesityl)porphyrin Iron (III) octasodium salt]: in test [1], the radiolabelled albumin leakage result is given as “caused a reduction in radiolabelled albumin leakage”. The “catalysis of the dismutation of superoxide” value in test [2] is “not to be effective catalysts for the dismutation of superoxide”. Besides, the “kcat, catalytic rate constant for the decomposition of sodium peroxynitrite” value in test [3] is 160000 M⁻¹ s⁻¹. The “LPS-induced jejunal damage (histology)” value in test [4] is “LPS-induced damage was less severe”.

Take `CC(=O)[O-].C[n+]1ccc(-c2c3nc(c(-c4cc[n+](C)cc4)c4ccc([n-]4)c(-c4cc[n+](C)cc4)c4nc(c(-c5cc[n+](C)cc5)c5ccc2[n-]5)C=C4)C=C3)cc1.Cc1ccc(S(=O)(=O)[O-])cc1.Cc1ccc(S(=O)(=O)[O-])cc1.Cc1ccc(S(=O)(=O)[O-])cc1.Cc1ccc(S(=O)(=O)[O-])cc1.[Fe+3]` [Fe(III)TMPyP, Acetato (5,10,15,20-tetrakis(N-methyl-4-pyridyl)porphinato) iron (III) tetra-tosylate]: the radiolabelled albumin leakage result in test [1] is “caused a reduction in radiolabelled albumin leakage”. The “catalysis of the dismutation of superoxide” value in test [2] is reported as “not to be effective catalysts for the dismutation of superoxide”. Also, the “kcat, catalytic rate constant for the decomposition of sodium peroxynitrite” value in test [3] amounted to 2.75e+06 M⁻¹ s⁻¹. In addition, the “LPS-induced jejunal damage (histology)” value in test [4] is on record as “LPS-induced damage was less severe”.
